# From US4486441A, “Pseudotropyl halogeno-benzoates and their use in migraine treatment” (Merrell Toraude Et Compagnie, priority 1982, dated 1984)
# Where two headings read alike, the source gives them in different places.
# Legend:
# 5-HT M-receptor [1] = molecular target: T1, 5-HT M-receptor (Oryctolagus cuniculus, UniProt A0A5F9C9J3); test: pA2 against 5-HT in the isolated rabbit heart
# T1 construct: determining their pA2 values in the isolated rabbit heart; from tissue; host or cells: isolated rabbit heart
# T1 sequence (A0A5F9C9J3 1-494): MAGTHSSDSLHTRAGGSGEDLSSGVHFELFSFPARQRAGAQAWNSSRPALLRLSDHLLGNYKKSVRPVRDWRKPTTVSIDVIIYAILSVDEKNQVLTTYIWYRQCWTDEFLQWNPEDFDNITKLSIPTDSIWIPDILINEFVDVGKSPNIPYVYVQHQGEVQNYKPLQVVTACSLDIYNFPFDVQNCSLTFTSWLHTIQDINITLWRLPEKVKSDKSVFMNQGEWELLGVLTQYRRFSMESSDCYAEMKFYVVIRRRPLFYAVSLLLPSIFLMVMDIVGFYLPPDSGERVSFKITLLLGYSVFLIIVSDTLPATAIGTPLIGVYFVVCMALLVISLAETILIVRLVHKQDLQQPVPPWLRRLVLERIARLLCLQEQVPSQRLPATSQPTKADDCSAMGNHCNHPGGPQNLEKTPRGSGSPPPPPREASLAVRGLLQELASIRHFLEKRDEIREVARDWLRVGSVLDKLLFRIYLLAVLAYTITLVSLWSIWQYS
# Description: The activity of the compounds against 5-HT can be assessed by determining their pA2 values in the isolated rabbit heart as described by Fozard et at Europ. J. Pharmacol. 59, 195-210 (1979). In the method described the molar concentration of antagonist which reduces the effects of twice the ED50 of 5-HT to that of the ED50 in the absence of antagonist is determined. The pA2 value is the negative logarithm of said molar concentrations.
# 5-HT M-receptor [2] = molecular target: T1, 5-HT M-receptor; settings: potency as 5-HT M-receptor antagonist; values reported by Fozard et al, Eur. J. Pharmacol. 59(1979) and 49(1978); cited from earlier work
# [3] = potency as 5-HT M-receptor antagonist, tests mentioned in the background section, read-out: pA2 (converted)
Structure (SMILES),pA2 (5-HT M-receptor [2]),Kb (5-HT M-receptor [1]; [3]),further results
"CN1[C@@H]2CC[C@H]1C[C@H](OC(=O)c1cc(Cl)cc(Cl)c1)C2 [Example 1, Pseudotropyl 3,5-Dichlorobenzoate (i.e. 3,5-Dichlorobenzoic Acid Exo-8-Methyl-8-Azabicyclo[3,2,1]Oct-3-Yl Ester)]",–,–,"Kb (5-HT M-receptor [1]; isolated rabbit heart, antagonism of 5-HT, read-out: pA2 (5-HT) (converted)): 2.51 nM"
CN1[C@@H]2CC[C@H]1C[C@@H](OC(=O)c1ccccc1)C2 [benzoyltropine],7.2,–,–
CN1[C@@H]2CC[C@H]1C[C@H](OC(=O)c1ccccc1)C2 [pseudotropyl benzoate],7.0,–,–
"COc1cc(C(=O)O[C@@H]2C[C@H]3CC[C@@H](C2)N3C)cc(OC)c1OC [pseudotropyl-3,4,5-trimethoxybenzoate]",–,2000 nM,–
"COc1cc(OC)cc(C(=O)O[C@@H]2C[C@H]3CC[C@@H](C2)N3C)c1 [pseudotropyl-3,5-dimethoxybenzoate]",–,251 nM,–
